Test results: ChEMBL document CHEMBL3085743, “6-(1-Benzyl-1H-pyrrol-2-yl)-2,4-dioxo-5-hexenoic acids as dual inhibitors of recombinant HIV-1 integrase and ribonuclease H, synthesized by a parallel synthesis approach” (J Med Chem, 2013)

How the values were obtained:
[1] = target: Human immunodeficiency virus type 1 integrase (Human immunodeficiency virus 1, UniProt Q7ZJM1)
Description: Inhibition of strand transfer activity of recombinant HIV1 integrase using 5'-end-labeled 21-mer double-stranded DNA as substrate after 60 mins by electrochemiluminescent plate-based assay

[2] = target: Human immunodeficiency virus type 1 reverse transcriptase (Human immunodeficiency virus 1, UniProt Q72547)
Description: Inhibition of RNase H activity of recombinant HIV1 reverse transcriptase using poly(dC)-[3H]poly(rG) as substrate

Sequence of Human immunodeficiency virus type 1 integrase (Q7ZJM1 whole entry): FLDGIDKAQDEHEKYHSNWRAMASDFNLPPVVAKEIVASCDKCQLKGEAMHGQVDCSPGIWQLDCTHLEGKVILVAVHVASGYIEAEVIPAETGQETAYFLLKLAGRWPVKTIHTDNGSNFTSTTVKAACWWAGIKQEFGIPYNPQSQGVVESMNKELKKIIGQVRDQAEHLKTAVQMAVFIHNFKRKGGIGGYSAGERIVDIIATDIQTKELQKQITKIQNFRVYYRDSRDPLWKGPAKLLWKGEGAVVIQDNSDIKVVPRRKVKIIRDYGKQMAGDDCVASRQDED

| Structure (SMILES) | IC50 [1] | IC50 [2] |
| --- | --- | --- |
| O=C(/C=C/c1cccn1Cc1ccc(F)cc1F)CC(=O)C(=O)O | 0.042 µM | 10 µM |
| CCOc1ccccc1Cn1cccc1/C=C/C(=O)CC(=O)C(=O)O | 0.31 µM | 64 µM |
| CCOC(=O)C(=O)CC(=O)/C=C/c1cccn1Cc1ccccc1OC | 23 µM | > 100 µM |
| CCOC(=O)C(=O)CC(=O)/C=C/c1cccn1Cc1cc(C)cc(C)c1 | 19 µM | 6 µM |
| O=C(/C=C/c1cccn1Cc1ccc(Cl)cc1Cl)CC(=O)C(=O)O | 4.9 µM | 7 µM |
| O=C(/C=C/c1cccn1Cc1cccc(F)c1)CC(=O)C(=O)O | 0.92 µM | 14 µM |
| CCOC(=O)C(=O)CC(=O)/C=C/c1cccn1Cc1ccc(C#N)cc1 | > 111 µM | 8 µM |
| Cc1cccc(Cn2cccc2/C=C/C(=O)CC(=O)C(=O)O)c1 | 1.3 µM | 4.6 µM |
| Cc1ccc(Cn2cccc2/C=C/C(=O)CC(=O)C(=O)O)cc1 | – | 17 µM |
| CCOC(=O)C(=O)CC(=O)/C=C/c1cccn1Cc1cc(F)cc(F)c1 | 0.49 µM | 5 µM |
| O=C(/C=C/c1cccn1Cc1c(Cl)cccc1Cl)CC(=O)C(=O)O | 0.17 µM | 28 µM |
| CCOC(=O)C(=O)CC(=O)/C=C/c1cccn1Cc1cccc(F)c1F | 0.53 µM | 8 µM |
| O=C(/C=C/c1cccn1Cc1ccccc1F)CC(=O)C(=O)O | 0.98 µM | 6.4 µM |
| O=C(/C=C/c1cccn1Cc1cccc(Cl)c1)CC(=O)C(=O)O | 0.31 µM | 9 µM |
| CCOC(=O)C(=O)CC(=O)/C=C/c1cccn1Cc1c(F)cccc1F | 4 µM | 19 µM |
| O=C(/C=C/c1cccn1Cc1ccc(F)c(F)c1)CC(=O)C(=O)O | 1.6 µM | 86 µM |
| CCOC(=O)C(=O)CC(=O)/C=C/c1cccn1Cc1ccc(C)cc1 | – | 7.3 µM |
| CCOC(=O)C(=O)CC(=O)/C=C/c1cccn1Cc1ccc(F)cc1F | 1 µM | 19 µM |
| N#Cc1ccccc1Cn1cccc1/C=C/C(=O)CC(=O)C(=O)O | 6 µM | 6 µM |
| O=C(/C=C/c1cccn1Cc1c(F)cccc1F)CC(=O)C(=O)O | 0.15 µM | 50 µM |
| CCOC(=O)C(=O)CC(=O)/C=C/c1cccn1Cc1ccccc1F | 1 µM | 6.3 µM |
| CCOC(=O)C(=O)CC(=O)/C=C/c1cccn1Cc1ccc(OC)cc1 | – | 6.7 µM |
| CCOC(=O)C(=O)CC(=O)/C=C/c1cccn1Cc1cccc(C#N)c1 | 13 µM | 5 µM |
| O=C(/C=C/c1cccn1Cc1cccc(F)c1F)CC(=O)C(=O)O | 0.059 µM | 6 µM |

| Structure (SMILES) | IC50 [1] | IC50 [2] |
| --- | --- | --- |
| O=C(/C=C/c1cccn1Cc1cc(F)cc(F)c1)CC(=O)C(=O)O | 1.2 µM | 14 µM |
| CCOC(=O)C(=O)CC(=O)/C=C/c1cccn1Cc1ccccc1C | 32 µM | 3 µM |
| O=C(/C=C/c1cccn1Cc1cc(F)ccc1F)CC(=O)C(=O)O | 0.052 µM | 5 µM |
| O=C(/C=C/c1cccn1Cc1ccc(Cl)cc1)CC(=O)C(=O)O | 4.1 µM | 5 µM |
| CCOC(=O)C(=O)CC(=O)/C=C/c1cccn1Cc1ccccc1OCC | 12 µM | > 100 µM |
| CCOC(=O)C(=O)CC(=O)/C=C/c1cccn1Cc1cc(Cl)cc(Cl)c1 | 8 µM | – |
| N#Cc1cccc(Cn2cccc2/C=C/C(=O)CC(=O)C(=O)O)c1 | 0.75 µM | 5 µM |
| Cc1ccccc1Cn1cccc1/C=C/C(=O)CC(=O)C(=O)O | 0.17 µM | 26 µM |
| CCOC(=O)C(=O)CC(=O)/C=C/c1cccn1Cc1cccc(F)c1 | 11 µM | 9 µM |
| CCOC(=O)C(=O)CC(=O)/C=C/c1cccn1Cc1cc(F)ccc1F | 0.45 µM | 9 µM |
| O=C(/C=C/c1cccn1Cc1cc(Cl)cc(Cl)c1)CC(=O)C(=O)O | 0.97 µM | 30 µM |
| Cc1cc(C)cc(Cn2cccc2/C=C/C(=O)CC(=O)C(=O)O)c1 | 1.6 µM | 16 µM |
| CCOC(=O)C(=O)CC(=O)/C=C/c1cccn1Cc1ccc(Cl)cc1 | – | 8 µM |
| CCOC(=O)C(=O)CC(=O)/C=C/c1cccn1Cc1c(Cl)cccc1Cl | 1.7 µM | 22 µM |
| CCOC(=O)C(=O)CC(=O)/C=C/c1cccn1Cc1ccc(Cl)cc1Cl | > 111 µM | 9 µM |
| CCOC(=O)C(=O)CC(=O)/C=C/c1cccn1Cc1cccc(C)c1 | 8 µM | 9.6 µM |
| CCOC(=O)C(=O)CC(=O)/C=C/c1cccn1Cc1ccccc1C#N | 9 µM | 32 µM |
| COc1ccc(Cn2cccc2/C=C/C(=O)CC(=O)C(=O)O)cc1 | – | 3 µM |
| O=C(/C=C/c1cccn1Cc1ccccc1)CC(=O)C(=O)O | – | 15 µM |
| COc1ccccc1Cn1cccc1/C=C/C(=O)CC(=O)C(=O)O | 0.53 µM | 16 µM |
| CCOC(=O)C(=O)CC(=O)/C=C/c1cccn1Cc1cccc(Cl)c1 | 6 µM | 19 µM |
| N#Cc1ccc(Cn2cccc2/C=C/C(=O)CC(=O)C(=O)O)cc1 | 1.7 µM | 6 µM |
| O=C(/C=C/c1cccn1Cc1ccc(F)cc1)CC(=O)C(=O)O | 0.026 µM | 2.5 µM |
